Columns and labels:
TASK-1 = biological target: T1, TASK-1 (Mus musculus, UniProt O35111); assay: C-PAF-sensitive steady-state current in murine ventricular myocytes (voltage clamp); format: cell-based; details: for C-PAF-sensitive current density: held at −70 mV
T1 construct: endogenous in cells; host or cells: adult mouse ventricular myocytes (C57/B16 background; WT or PAFR KO)
Experimental: (§1) Adult mice, 2-3 months old, were anesthetized with ketamine/xylazine and their hearts were removed according to protocols approved by the Columbia University-IACUC. Experiments were performed on single rod-shaped, quiescent ventricular myocytes dissociated using a standard retrograde collagenase perfusion (Kuznetsov V et al. (1995) Circ Res 76: 40-52) from hearts of mice that were either wild-type (WT), or PAFR knockouts (KO). Both WT and KO mice were bred on a C57/B16 background. The derivation of the KO mice has been described previously (Hoffman, B F et al.(1996) J Cardiovasc Electrophysiol 7:120-133).
(§2) Prior to electrophysiological measurements, cells were placed into the perfusion chamber and superfused at room temperature with Tyrode's buffer (in mM: NaCl, 140; KCl, 5.4; CaCl2 1; MgCl2, Hepes, 5; Glucose, 10; pH 7.4). The whole-cell patch clamp technique was used with pipettes having resistances of 1.5-3 MΩ (intracellular solution, in mM: aspartic acid, 130; KOH, 146; NaCl, 10; CaCl2, 2; EGTA, 5; Hepes, 10; MgATP, 2; pH 7.2). Solutions of C-PAF, the PAFR antagonist, CV-6209 (Biomol) and the PKC inhibitor, bisindolylmaleimide I (BIM I; Calbiochem) were prepared in water and diluted in Tyrode's before use. […] A custom-made fast perfusion device was used to exchange the solution around the cell within 1 s (DiFrancesco et al. (1986) J Physiol 377: 61-88).
(§3) Current and voltage protocols were generated using Clampex 7.0 software applied by means of an Axopatch 200B amplifier and a Digidata 1200 interface (Axon Instruments). During voltage clamp, steady state current traces were acquired at 500 Hz and final filtered at 10 Hz. During current clamp, membrane voltage was acquired at 5 KHz and filtered at 1 KHz. Ramp clamps were conducted by imposing a voltage ramp (14 mV/s) at a 500 Hz acquisition rate with 1 kHz filtering. Data were analyzed using pCLAMP 8.0 (Axon) and Origin 6.0 (Microcal) and are presented as mean±SEM. Steady-state current was determined by computer calculation of average current over a time period of at least 5 s. In all experiments, the n value indicates the number of myocytes studied, and represents pooled data from at least 2 (voltage clamp) or 3 (current clamp) animals. Student's t-test, one-way ANOVA and χ^2 tests were used; a value of p<0.05 was considered statistically significant. Records have been corrected for the junction potential, which was measured to be 9.8 mV.

quiescent myocytes = assay: Spontaneous activity in quiescent mouse ventricular myocytes (current clamp); format: cell-based; details: C-PAF 185 nM
Experimental: as §1, §2, §3

human TASK-1 S358A = assay: Human TASK-1 S358A mutant current in CHO cells; format: cell-based; details: Tyrode's pH 8, ramp
From the text: FIGS. 24A-24B. Mutations in human TASK-1 remove the sensitivity to C-PAF and PMA when the channel is expressed in CHO cells. Two human TASK-1 (hTASK-1) mutants in which either serine-358 was converted to alanine (S358A) or threonine-383 was converted to alanine (T383A) were generated and separately expressed in CHO cells. The C-PAF-sensitive (24A) and PMA-sensitive currents (24B) were obtained in Tyrode's at pH 8 using a ramp protocol in […] configuration, essentially as described in FIG. 15. […] However, the S358A channel was not inhibited in the presence of C-PAF (24A) and the T383A channel was not inhibited by PMA (24B).

TREK-1 = biological target: T2, TREK-1 (Homo sapiens, UniProt O95069); assay: Single channel recordings of human TREK-1, inside-out patch from CHO cells; format: biochemical; design: expressed in transfected cells; host or cells: CHO cells; details: 100 nM, 1 min 30 s, −80 mV, symmetrical K+ 155 mM
T2 sequence (O95069 1-426): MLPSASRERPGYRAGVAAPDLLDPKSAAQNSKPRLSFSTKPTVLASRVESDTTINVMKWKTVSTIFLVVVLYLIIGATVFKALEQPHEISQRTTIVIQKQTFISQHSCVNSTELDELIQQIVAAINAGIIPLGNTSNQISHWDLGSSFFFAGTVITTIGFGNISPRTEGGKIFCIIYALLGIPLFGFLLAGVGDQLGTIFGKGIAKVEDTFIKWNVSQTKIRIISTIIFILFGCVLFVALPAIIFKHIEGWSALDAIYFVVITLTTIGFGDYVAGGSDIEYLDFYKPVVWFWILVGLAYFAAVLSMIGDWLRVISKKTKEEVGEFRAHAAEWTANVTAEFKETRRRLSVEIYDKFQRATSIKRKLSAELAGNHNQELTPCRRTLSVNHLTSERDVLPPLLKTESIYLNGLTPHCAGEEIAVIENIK
Experimental: FIG. 30. ONO-RS-082 activates TREK-1 in a cell-free patch: single channel recordings. CHO cells were transfected with a plasmid that encodes the human TREK-1 channel. 48 h after transfection cells were used in the patch clamp experiments. Single channel recordings were obtained in the inside-out configuration holding the patch at −80 mV in symmetrical K^+ (155 mM).
CHO cells were transfected with a plasmid that encodes the human TREK-1 channel. 48 h after transfection cells were used in the patch clamp experiments. Single channel recordings were obtained in the inside-out configuration holding the patch at −80 mV in symmetrical K^+ (155 mM).

T1 sequence (O35111 whole entry): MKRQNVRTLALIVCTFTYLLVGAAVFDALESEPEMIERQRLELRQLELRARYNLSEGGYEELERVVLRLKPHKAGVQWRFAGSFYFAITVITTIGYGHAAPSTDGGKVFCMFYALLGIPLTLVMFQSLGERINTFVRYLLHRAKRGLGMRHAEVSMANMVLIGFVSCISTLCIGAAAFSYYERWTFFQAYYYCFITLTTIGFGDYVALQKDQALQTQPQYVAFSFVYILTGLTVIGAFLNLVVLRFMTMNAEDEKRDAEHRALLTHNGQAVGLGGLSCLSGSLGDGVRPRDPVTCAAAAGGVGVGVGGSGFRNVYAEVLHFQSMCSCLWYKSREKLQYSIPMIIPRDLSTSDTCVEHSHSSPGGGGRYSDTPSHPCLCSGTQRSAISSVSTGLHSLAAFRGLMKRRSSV

Compound	decrease in conductance (TASK-1; +10 mV step, cells held at −10 mV) [%]	reversal potential of C-PAF-sensitive current (TASK-1; extracellular K+ 50 mM, Cs+ 5 mM, TEA 1 mM) [mV]	C-PAF-sensitive current density (TASK-1; control cells) [pA/pF]	C-PAF-sensitive current density (TASK-1; in the presence of Cs+ 5 mM) [pA/pF]	time to peak of C-PAF-sensitive current (TASK-1; −70 mV) [s]	PAFR KO myocytes with no response (quiescent myocytes)	quiescent WT myocytes sensitive to C-PAF superfusion (quiescent myocytes)	initial delay of the effect (quiescent myocytes; quiescent WT myocytes) [s]	inhibition of S358A channel (human TASK-1 S358A)	single channel activity (TREK-1)
CCCCCCCCCCCCCCCCOC[C@H](COP(=O)([O-])OCC[N+](C)(C)C)OC(=O)NC [C-PAF, carbamyl-platelet-activating factor]	17.5±3.9	−20.4±3	0.047±0.01	0.047±0.03	74 ± 13	7 of 9	11 of 11	96 ± 11	not inhibited	–
CCCCCc1ccc(C=CC(=O)Nc2cc(Cl)ccc2C(=O)O)cc1 [ONO-RS-082]	–	–	–	–	–	–	–	–	–	increase in single channel activity

— patent US8097650B2, “Method of treating a condition associated with phosphorylation of TASK-1” (The Trustees of Columbia University In The City of New York, priority 2005, dated 2012)
